Data published in ChEMBL document CHEMBL1201862, “PubChem BioAssay data set” (2004).
Active and inactive are the calls of the source.

Legend:
cells [1] = format: functional, cell-based
cells [2] = format: functional, cell-based; remark: listed apart in the source
Caspase-3 [3] = molecular target: T1, Caspase-3 (Homo sapiens, UniProt P42574); format: functional;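 further: Dose-response selectivity test against caspase-3 for candidate inhibitors of sentrin-specific proteases (SENPs)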
T1 sequence (P42574 whole entry): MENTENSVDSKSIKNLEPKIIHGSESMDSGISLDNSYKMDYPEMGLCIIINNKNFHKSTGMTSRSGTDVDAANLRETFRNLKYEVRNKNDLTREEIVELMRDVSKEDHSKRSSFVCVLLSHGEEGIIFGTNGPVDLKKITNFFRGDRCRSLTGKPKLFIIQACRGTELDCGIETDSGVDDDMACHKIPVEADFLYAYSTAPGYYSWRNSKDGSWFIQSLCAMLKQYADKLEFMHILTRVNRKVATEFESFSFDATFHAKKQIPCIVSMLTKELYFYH

[4] = molecular target: T2, Sentrin-specific protease 7 (Homo sapiens, UniProt Q9BQF6); format: functional;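 further: Luminescence-based dose-response confirmation of ultra-high-throughput screening hits, measuring inhibition of SENP7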
T2 sequence (Q9BQF6 whole entry): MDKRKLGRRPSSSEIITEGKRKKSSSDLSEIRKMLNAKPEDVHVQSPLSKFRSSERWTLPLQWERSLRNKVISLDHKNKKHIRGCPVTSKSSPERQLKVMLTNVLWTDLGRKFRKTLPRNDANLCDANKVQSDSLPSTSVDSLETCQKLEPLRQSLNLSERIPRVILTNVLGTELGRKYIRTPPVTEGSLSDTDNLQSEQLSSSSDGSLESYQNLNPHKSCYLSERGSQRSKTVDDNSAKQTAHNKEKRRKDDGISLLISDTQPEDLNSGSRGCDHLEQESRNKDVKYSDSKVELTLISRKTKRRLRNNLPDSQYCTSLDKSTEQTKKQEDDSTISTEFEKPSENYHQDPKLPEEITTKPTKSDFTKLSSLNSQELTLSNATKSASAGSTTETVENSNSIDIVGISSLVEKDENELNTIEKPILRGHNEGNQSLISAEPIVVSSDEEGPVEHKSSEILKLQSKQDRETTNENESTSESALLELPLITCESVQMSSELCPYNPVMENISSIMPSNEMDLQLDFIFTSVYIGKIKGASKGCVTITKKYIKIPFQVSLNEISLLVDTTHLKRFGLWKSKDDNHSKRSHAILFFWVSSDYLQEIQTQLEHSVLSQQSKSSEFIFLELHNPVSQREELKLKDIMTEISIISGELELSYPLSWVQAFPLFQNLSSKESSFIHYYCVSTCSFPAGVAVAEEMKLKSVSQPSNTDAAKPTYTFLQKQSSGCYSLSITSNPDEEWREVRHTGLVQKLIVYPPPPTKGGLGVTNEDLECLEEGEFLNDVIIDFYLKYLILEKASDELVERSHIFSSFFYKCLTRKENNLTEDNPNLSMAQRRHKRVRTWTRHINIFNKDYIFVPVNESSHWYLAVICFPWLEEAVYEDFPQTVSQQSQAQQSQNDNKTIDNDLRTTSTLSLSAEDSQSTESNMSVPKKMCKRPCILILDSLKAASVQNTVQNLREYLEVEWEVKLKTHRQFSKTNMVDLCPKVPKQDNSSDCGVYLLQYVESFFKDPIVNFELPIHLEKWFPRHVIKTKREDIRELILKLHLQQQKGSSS

[5] = molecular target: T3, Sentrin-specific protease 6 (Homo sapiens, UniProt Q9GZR1); format: functional;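 further: Luminescence-based dose-response confirmatory assay of SENP6 inhibition, following up an ultra-high-throughput screen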
T3 sequence (Q9GZR1 whole entry): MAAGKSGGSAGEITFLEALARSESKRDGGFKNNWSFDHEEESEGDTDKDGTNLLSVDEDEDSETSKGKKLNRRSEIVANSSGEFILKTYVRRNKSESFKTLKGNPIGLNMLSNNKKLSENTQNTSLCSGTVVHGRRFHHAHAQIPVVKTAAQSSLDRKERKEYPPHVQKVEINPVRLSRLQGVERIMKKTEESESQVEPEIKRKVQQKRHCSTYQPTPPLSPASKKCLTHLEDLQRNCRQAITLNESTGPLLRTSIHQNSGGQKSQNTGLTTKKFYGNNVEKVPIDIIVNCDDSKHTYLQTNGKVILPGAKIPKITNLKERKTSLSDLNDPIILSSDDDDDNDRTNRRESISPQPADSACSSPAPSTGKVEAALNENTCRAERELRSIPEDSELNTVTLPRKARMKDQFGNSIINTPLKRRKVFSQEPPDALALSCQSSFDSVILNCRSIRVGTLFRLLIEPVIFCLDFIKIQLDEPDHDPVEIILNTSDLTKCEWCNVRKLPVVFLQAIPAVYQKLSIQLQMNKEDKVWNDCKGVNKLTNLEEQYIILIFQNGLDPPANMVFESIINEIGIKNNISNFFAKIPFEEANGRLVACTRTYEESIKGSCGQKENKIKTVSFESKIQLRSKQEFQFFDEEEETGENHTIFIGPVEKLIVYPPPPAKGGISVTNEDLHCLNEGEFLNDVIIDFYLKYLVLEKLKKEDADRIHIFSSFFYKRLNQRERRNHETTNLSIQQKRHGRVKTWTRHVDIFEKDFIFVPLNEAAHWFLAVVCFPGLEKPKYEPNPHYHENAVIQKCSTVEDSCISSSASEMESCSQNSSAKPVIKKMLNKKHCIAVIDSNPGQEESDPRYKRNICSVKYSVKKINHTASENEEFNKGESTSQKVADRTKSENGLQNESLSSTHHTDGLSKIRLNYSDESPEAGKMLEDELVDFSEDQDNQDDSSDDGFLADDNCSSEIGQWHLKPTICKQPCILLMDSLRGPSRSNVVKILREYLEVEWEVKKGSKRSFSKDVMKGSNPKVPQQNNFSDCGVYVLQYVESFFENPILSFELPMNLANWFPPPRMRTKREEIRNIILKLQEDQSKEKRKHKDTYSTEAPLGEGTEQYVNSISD

[6] = molecular target: T4, Sentrin-specific protease 8 (Homo sapiens, UniProt Q96LD8); format: functional;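 further: luminescence read-out of SENP8 inhibition, dose-response confirmation following an ultra-high-throughput screen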
T4 sequence (Q96LD8 whole entry): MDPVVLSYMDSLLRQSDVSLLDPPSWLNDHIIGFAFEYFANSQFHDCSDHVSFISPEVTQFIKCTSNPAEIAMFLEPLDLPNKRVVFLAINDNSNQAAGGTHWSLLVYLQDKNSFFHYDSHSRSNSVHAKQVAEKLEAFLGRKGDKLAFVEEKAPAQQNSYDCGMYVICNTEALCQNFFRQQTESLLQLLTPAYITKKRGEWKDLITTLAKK

[7] = molecular target: Heat shock protein HSP 90-alpha (Homo sapiens, UniProt P07900); format: functional, organism-based
Caspase-3 [8] = molecular target: T1, Caspase-3; assay: inhibition of recombinant caspase-3 activity – biochemical, luminescence, set 2, selectivity assay for SENP protease inhibitor project, SAR follow-up (AID 588599); format: functional
[9] = molecular target: T4, Sentrin-specific protease 8; assay: inhibition of sentrin protease 8 – biochemical, luminescence, set 2, SAR follow-up (AID 588601); format: functional
[10] = molecular target: T2, Sentrin-specific protease 7; assay: inhibition of human SENP7 cleavage activity – biochemical, luminescence, set 2, SAR follow-up (AID 588600); format: functional
[11] = molecular target: T3, Sentrin-specific protease 6; assay: inhibition of human SENP6 catalytic domain – biochemical, luminescence, set 2, SAR follow-up (AID 588598); format: functional
[12] = luciferase reporter signal suppression in cells – H4 neuroglioma cells, luminescence, dose response (AID 1990); format: functional, cell-based
BJ [13] = assay: BJ-TERT fibroblast viability loss – cell-based, RAS-independent, luminescence, dose response (AID 1933); format: functional; conditions: Homo sapiens
[14] = Luminescence Cell-Based Dose Response HTS to Identify Inhibitors of 5'UTR Stem-Loop Driven Prion Protein mRNA Translation in H4 Neuroglioblastoma Cells. [Related pubchem assays: 1827 (Project Summary), 1813 (Primary HTS)]; format: functional
[15] = alpha-synuclein stem-loop luciferase translation blockers – H4 neuroglioma cells, luminescence, confirmation (AID 1988); format: functional, cell-based
BJ [16] = assay: cells; format: functional, cell-based; conditions: Homo sapiens
[17] = molecular target: Aryl hydrocarbon receptor (Homo sapiens, UniProt P35869); assay: Luminescence-based cell-based high throughput dose response assay for activators of the Aryl Hydrocarbon Receptor (AHR). [Related pubchem assays: 2796 (Primary screen (AHR activators in singlicate)), 2845 (Confirmation screen (AHR activators in triplicate)), 434939 (Counterscreen (PXR activators in triplicate)), 2804 (Summary (AHR activators))]; format: ADME
BJ [18] = assay: BJ-TERT-LT-ST fibroblast viability loss – cell-based, RAS-independent, luminescence, dose response (AID 1935); format: functional; conditions: Homo sapiens;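 further: BJ fibroblasts immortalized with TERT plus LT and ST oncogenes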
[19] = DRD fibroblast viability loss – cell-based, non-viral oncogenic, luminescence, dose response (AID 1934); format: functional; conditions: Homo sapiens
[20] = THP-1 cell cytotoxicity, dose response, cytotoxicity control for non-replicating M. tuberculosis project (AID 489025); format: functional
[21] = HepG2 cell cytotoxicity, dose response, cytotoxicity control for non-replicating M. tuberculosis project (AID 489018); format: functional; conditions: Mycobacterium tuberculosis
Bcl-2-related protein A1 = molecular target: T5, Bcl-2-related protein A1 (Mus musculus, UniProt Q07440); format: functional;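 further: confirmatory dose–response counterscreen on Bfl-1, used to check hits from a UBC13 polyubiquitin inhibitor campaign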
T5 sequence (Q07440 whole entry): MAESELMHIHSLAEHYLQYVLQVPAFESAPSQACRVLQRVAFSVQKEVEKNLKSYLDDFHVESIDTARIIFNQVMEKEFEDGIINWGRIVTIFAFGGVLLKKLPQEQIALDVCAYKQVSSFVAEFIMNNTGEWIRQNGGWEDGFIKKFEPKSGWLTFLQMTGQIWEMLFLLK

[22] = molecular target: T6, Ubiquitin-conjugating enzyme E2 N (Homo sapiens, UniProt P61088); format: functional
T6 sequence (P61088 whole entry): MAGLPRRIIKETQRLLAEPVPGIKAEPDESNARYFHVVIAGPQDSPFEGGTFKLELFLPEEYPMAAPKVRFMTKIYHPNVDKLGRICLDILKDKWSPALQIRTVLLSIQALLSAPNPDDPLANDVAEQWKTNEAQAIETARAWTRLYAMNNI

[23] = Vero E6 cell cytotoxicity, dose response, cytotoxicity control for non-replicating M. tuberculosis project, secondary assay (AID 492998); format: functional, VeroE6; conditions: Vero C1008
[24] = molecular target: T6, Ubiquitin-conjugating enzyme E2 N; format: functional; remark: listed apart in the source
[25] = HEK-293T viability loss after treatment – luminescence, T-cell screen hits, cytotoxicity control for TCR NF-kB inhibitor project, dose response (AID 489026); format: functional, cell-based;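 further: cells exposed to compound about 14 hours before the viability readout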
cells [26] = format: functional
CHO = CHO cell viability loss, potency – luminescence, cytotoxicity control for TLR9-MyD88 binding inhibitor project, dose response (AID 588339); format: functional, cell-based, hamster; conditions: Cricetulus griseus;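 further: CHO cells stably coexpressing TLR9 and MyD88 fusions from primary screen; compound exposure lasted 48 hours before viability readout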
BJ [27] = assay: growth inhibition of engineered Ras-driven BJ cells – cell-based, alamar blue fluorescence, cherrypicked samples, dose response (AID 2631); format: functional; conditions: Homo sapiens;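 further: confirmatory dose-response assay in RAS-dependent BJ fibroblasts engineered with TERT, LT and ST, with cytotoxicity read by fluorescence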
Beta Lactamase = Beta Lactamase (Pseudomonas aeruginosa, UniProt Q932Y6); assay: BLA reporter interference, concentration series – BLA reporter cells, FRET fluorescence, artefact control for TLR9-MyD88 binding inhibitor project, dose response (AID 588341); format: cell-based;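 further: cell based assay in CHO-K1 cells stably expressing beta-lactamase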
INS1 = assay: INS-1E survival protection against cytokine death – cell-based, luminescence, retest, dose response (AID 449756); format: functional; conditions: Rattus norvegicus;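 further: cell death triggered by IL-1 beta plus TNF-alpha plus IFN-gamma mixture; protective hits raise ATP signal compared with cytokine alone wells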
[28] = molecular target: T7, Mitochondrial peptide methionine sulfoxide reductase (Bos taurus, UniProt P54149); format: functional;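 further: absorbance read-out, biochemical high-throughput dose-response screen for MsrA inhibitors, confirmatory; recombinant bovine MsrA coupled to E. coli TrxB with NADPH and selenocystamine; potency is for inhibitors of MsrA activity on DMSO substrate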
T7 sequence (P54149 whole entry): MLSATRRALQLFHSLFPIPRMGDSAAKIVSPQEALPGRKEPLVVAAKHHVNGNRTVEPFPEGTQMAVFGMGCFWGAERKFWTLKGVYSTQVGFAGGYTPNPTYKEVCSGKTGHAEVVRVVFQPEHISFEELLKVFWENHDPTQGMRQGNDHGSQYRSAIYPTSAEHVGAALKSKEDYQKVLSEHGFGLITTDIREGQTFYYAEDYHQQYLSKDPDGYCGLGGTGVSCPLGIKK

[29] = blockers of HIV-1 envelope-mediated cell-cell fusion – cherry-pick, dose response (AID 652057); format: functional, cell-based
[30] = viability loss in CEM21 cells – cell-based, CellTiter-Glo luminescence, cherry-picked, cytotoxicity control for viral fusion inhibitor project, dose response (AID 652042); format: functional;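 further: potency for signal decrease meaning cytotoxicity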
[31] = blockers of HIV-1 ZM109 envelope-driven cell-cell fusion – HeLa effector, CEM target cells, luciferase, cherry-pick, dose response (AID 652058); format: functional, cell-based;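 further: luciferase signal from HIV-1 Env mediated cell-cell fusion of effector and target cells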
[32] = off-target signal loss in HeLa-CEM21 co-culture – HeLa F-luc CTL cells, cherry-picked, counter-screen for HIV-1 Env fusion inhibitor project, dose response (AID 652040); format: functional, cell-based;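 further: potency for signal decrease marking cytotoxic or nonspecific inhibition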
[33] = HIV-1 AD8 envelope cell-cell fusion blockers – cherry-pick, dose response (AID 652062); format: functional, cell-based;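 further: luciferase signal from cell-cell fusion driven by HIV-1 clade B AD8 Env; potency is for inhibitors of fusion seen as a drop in luminescence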

Sequence of Beta Lactamase (Q932Y6 whole entry): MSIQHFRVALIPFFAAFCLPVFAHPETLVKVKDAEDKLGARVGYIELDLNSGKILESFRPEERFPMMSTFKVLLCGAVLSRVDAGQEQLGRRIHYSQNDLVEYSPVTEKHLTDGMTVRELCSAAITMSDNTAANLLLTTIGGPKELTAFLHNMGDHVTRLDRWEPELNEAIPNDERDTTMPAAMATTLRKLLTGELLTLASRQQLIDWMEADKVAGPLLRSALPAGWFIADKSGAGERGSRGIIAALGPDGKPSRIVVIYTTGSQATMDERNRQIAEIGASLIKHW
Sequence of Aryl hydrocarbon receptor (P35869 whole entry): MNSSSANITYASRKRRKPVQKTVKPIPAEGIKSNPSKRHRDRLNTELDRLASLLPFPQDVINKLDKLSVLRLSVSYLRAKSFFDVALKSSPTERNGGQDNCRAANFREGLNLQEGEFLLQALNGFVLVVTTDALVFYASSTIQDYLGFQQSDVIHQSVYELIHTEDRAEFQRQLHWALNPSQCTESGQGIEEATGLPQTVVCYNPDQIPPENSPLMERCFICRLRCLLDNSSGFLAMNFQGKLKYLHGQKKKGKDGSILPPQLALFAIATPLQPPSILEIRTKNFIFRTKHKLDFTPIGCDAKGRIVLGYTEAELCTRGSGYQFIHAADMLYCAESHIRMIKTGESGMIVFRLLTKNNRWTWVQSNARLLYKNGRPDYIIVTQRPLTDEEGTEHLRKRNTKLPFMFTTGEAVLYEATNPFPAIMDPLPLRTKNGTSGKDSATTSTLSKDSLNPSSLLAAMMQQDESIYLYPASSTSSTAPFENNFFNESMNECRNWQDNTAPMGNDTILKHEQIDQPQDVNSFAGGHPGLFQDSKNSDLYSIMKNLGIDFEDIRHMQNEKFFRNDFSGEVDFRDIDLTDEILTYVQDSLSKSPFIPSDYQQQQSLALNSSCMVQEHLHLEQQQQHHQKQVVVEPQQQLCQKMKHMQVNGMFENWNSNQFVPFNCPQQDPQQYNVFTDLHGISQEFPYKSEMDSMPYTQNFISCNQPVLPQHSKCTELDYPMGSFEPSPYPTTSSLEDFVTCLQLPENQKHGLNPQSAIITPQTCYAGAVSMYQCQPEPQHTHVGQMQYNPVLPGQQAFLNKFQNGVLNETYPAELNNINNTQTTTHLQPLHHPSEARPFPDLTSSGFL

## CCCCNc1nc(N)nc(-c2cc(Cl)ccc2O)n1
Cells [1]
  EC50: > 350 µM (not active)
Cells [2]
  EC50: 3.49 µM (active)
Caspase-3 [3]
  IC50: 44.1 µM (active)
[4]
  IC50: 4.54 µM (active)
[5]
  IC50: > 100 µM (inactive)
[6]
  IC50: > 100 µM (inactive)
[7]
  AC50: 4.87 µM (active)

## COc1ccc2nc(NC(=O)c3ccccc3NS(=O)(=O)c3ccc4c(c3)OCCO4)sc2c1
Caspase-3 [8]
  IC50: > 99 µM (inactive)
[9]
  IC50: > 99 µM (inactive)
[10]
  IC50: > 99 µM (inactive)
[11]
  IC50: > 99 µM (inactive)

## COc1ccc2nc(C)cc(N/N=C/c3ccc(F)cc3)c2c1
[12]
  EC50: 8.44 µM (active)
BJ [13]
  EC50: 1.24 µM (inconclusive)
[14]
  EC50: > 120 µM (not active)
[15]
  EC50: 9.29 µM (active)
BJ [16]
  EC50: 5.09 µM (inconclusive)
[17]
  EC50: > 0.377 µM (active)
BJ [18]
  EC50: 2.66 µM (inconclusive)
[19]
  EC50: 4.92 µM (active)
[20]
  CC50: 1.66 µM (active)
[21]
  CC50: 15.2 µM (active)
Bcl-2-related protein A1
  IC50: 17 µM (active)
[22]
  IC50: 11.8 µM (active)
[23]
  CC50: 0.57 µM (active)
[24]
  IC50: 10.1 µM (active)
[25]
  IC50: > 80 µM (inactive)
Cells [26]
  IC50: 3.12 µM (active)
CHO
  IC50: 6.2 µM (active)
BJ [27]
  EC50: 0.317 µM (active)
Beta Lactamase
  IC50: 2.13 µM (active)
INS1
  AC50: 6.46 µM (active)
[28]
  IC50: 12.8 µM (inactive)
[29]
  AC50: 8.26 µM (active)
[30]
  AC50: 2.65 µM (active)
[31]
  AC50: 8.14 µM (active)
[32]
  AC50: 6.09 µM (active)
[33]
  AC50: 14.7 µM (active)
